Numbers after ± are expanded uncertainties.
What was measured:
[1] = 101.33 kPa, Liquid; for speed of sound: sound analyzer
[2] = xn = mol fraction of the nth substance listed; conditions: 101 kPa, Liquid

COCCOCCO [2-(2-methoxyethoxy)ethanol]
[1]
Conditions | mass density [kg/m3] | speed of sound [m/s]
293.15 K | 1019.81 ± 1.1 | 1432.4 ± 2
298.15 K | 1015.41 ± 1.1 | 1415.2 ± 2
303.15 K | 1010.91 ± 1.1 | 1397.9 ± 2

COCCOCCO [2-(2-methoxyethoxy)ethanol] + CCCCO
[2]
Conditions | mass density [kg/m3]
293.15 K, x1 = 0.0535 | 823.612 ± 0.85
293.15 K, x1 = 0.1527 | 848.542 ± 0.8
293.15 K, x1 = 0.2 | 860.004 ± 0.78
293.15 K, x1 = 0.2003 | 860.091 ± 0.78
293.15 K, x1 = 0.2518 | 872.235 ± 0.77
293.15 K, x1 = 0.3009 | 883.531 ± 0.75
293.15 K, x1 = 0.3032 | 884.084 ± 0.75
293.15 K, x1 = 0.3546 | 895.622 ± 0.74
293.15 K, x1 = 0.399 | 905.367 ± 0.74
293.15 K, x1 = 0.4007 | 905.744 ± 0.74
293.15 K, x1 = 0.4522 | 916.775 ± 0.74
293.15 K, x1 = 0.5012 | 927.038 ± 0.74
293.15 K, x1 = 0.5527 | 937.589 ± 0.75
293.15 K, x1 = 0.5978 | 946.625 ± 0.76
293.15 K, x1 = 0.6019 | 947.427 ± 0.77
293.15 K, x1 = 0.6526 | 957.368 ± 0.78
293.15 K, x1 = 0.6961 | 965.704 ± 0.8
293.15 K, x1 = 0.7503 | 975.858 ± 0.83
293.15 K, x1 = 0.7973 | 984.5 ± 0.86
293.15 K, x1 = 0.8492 | 993.819 ± 0.89
293.15 K, x1 = 0.8978 | 1002.37 ± 0.94
293.15 K, x1 = 0.947 | 1010.88 ± 1
298.15 K, x1 = 0.053 | 819.639 ± 0.86
298.15 K, x1 = 0.1019 | 832.026 ± 0.83
298.15 K, x1 = 0.1502 | 843.949 ± 0.81
298.15 K, x1 = 0.2028 | 856.65 ± 0.79
298.15 K, x1 = 0.2523 | 868.3 ± 0.78
298.15 K, x1 = 0.3497 | 890.395 ± 0.76
298.15 K, x1 = 0.454 | 912.946 ± 0.75
298.15 K, x1 = 0.5507 | 932.958 ± 0.76
298.15 K, x1 = 0.6013 | 943.061 ± 0.78
298.15 K, x1 = 0.648 | 952.194 ± 0.79
298.15 K, x1 = 0.6994 | 962.043 ± 0.81
298.15 K, x1 = 0.7465 | 970.86 ± 0.83
298.15 K, x1 = 0.7505 | 971.594 ± 0.84
298.15 K, x1 = 0.7968 | 980.073 ± 0.86
298.15 K, x1 = 0.7977 | 980.251 ± 0.86
298.15 K, x1 = 0.8465 | 988.996 ± 0.9
298.15 K, x1 = 0.8486 | 989.382 ± 0.9
298.15 K, x1 = 0.8987 | 998.178 ± 0.94
298.15 K, x1 = 0.899 | 998.234 ± 0.94
298.15 K, x1 = 0.9481 | 1006.69 ± 1
298.15 K, x1 = 0.9483 | 1006.72 ± 1
303.15 K, x1 = 0.0508 | 815.157 ± 0.87
303.15 K, x1 = 0.1014 | 827.941 ± 0.84
303.15 K, x1 = 0.1471 | 839.22 ± 0.82
303.15 K, x1 = 0.2015 | 852.303 ± 0.8
303.15 K, x1 = 0.2528 | 864.365 ± 0.79
303.15 K, x1 = 0.3048 | 876.239 ± 0.78
303.15 K, x1 = 0.3503 | 886.405 ± 0.77
303.15 K, x1 = 0.3555 | 887.558 ± 0.77
303.15 K, x1 = 0.4005 | 897.361 ± 0.76
303.15 K, x1 = 0.4503 | 908.007 ± 0.76
303.15 K, x1 = 0.4981 | 917.96 ± 0.77
303.15 K, x1 = 0.5518 | 928.933 ± 0.77
303.15 K, x1 = 0.5996 | 938.439 ± 0.79
303.15 K, x1 = 0.648 | 947.877 ± 0.8
303.15 K, x1 = 0.6991 | 957.619 ± 0.82
303.15 K, x1 = 0.7497 | 967.071 ± 0.85
303.15 K, x1 = 0.7954 | 975.414 ± 0.87
303.15 K, x1 = 0.8491 | 985.035 ± 0.91
303.15 K, x1 = 0.8964 | 993.318 ± 0.94
303.15 K, x1 = 0.9513 | 1002.75 ± 1

CCCCOCCOCCO [3,6-dioxa-1-decanol]
[1]
Conditions | mass density [kg/m3] | speed of sound [m/s]
293.15 K | 952.196 ± 1.1 | 1374.3 ± 2
298.15 K | 948.103 ± 1.1 | 1357 ± 2
303.15 K | 943.743 ± 1.1 | 1340 ± 2
